Results as given in US20130303575A1, “ADMINISTRATION OF AN INHIBITOR OF HDAC” (priority 2007, published 2013).

Tests used:
clinical = settings: human, in vivo
Description: Histone H3 and H4 acetylation was analyzed in peripheral blood mononuclear cells (PBMCs) by immunohistochemical detection.
Blood samples (5 ml) were taken at the following times:
Blood was centrifuged for 10 minutes at 2000 g at room temperature within approximately 30 minutes after withdrawal; plasma was separated and stored at −18° C. to −25° C. until analysis.

[1] = system: refractory solid tumors or lymphomas; experiment: Tumor response by Response Evaluation Criteria on Solid Tumors (Example 1); assay type: in vivo, human
Description: Tumor response was assessed every 6 weeks on the biweekly schedule (Schedule A) and every 8 weeks on the twice-weekly (Schedule B) and weekly (Schedule C) schedules, using appropriate imaging studies. Tumor responses were defined by the Response Evaluation Criteria on Solid Tumors.

plasma proteins = experiment: Plasma protein binding; assay type: in vitro ADME
[2] = Plasma pharmacokinetics of oral SNDX-275 in adults with advanced acute leukemias (Example 3); assay type: in vivo, human; settings: for AUC / Cmax / half-life / Tmax: human, plasma, oral; for AUC: read-out: AUC (mean and SD); for Cmax: read-out: Cmax (mean and SD)
Description: Separated plasma was immediately frozen on dry ice and then stored at -70° C. until analysis. […] The pharmacokinetic parameters of interest included peak plasma concentration (Cmax), time to peak concentration (Tmax), area under the plasma concentration versus time curve extrapolated to infinity (AUC), apparent oral clearance (CL/F), and the terminal half-life (T1/2, z). […] The influence of the dose level on CL/F was evaluated using the Kruskal-Wallis' one-way analysis of ranks test, followed by the Dunn's multiple comparison test for identifying statistically significant group differences. These calculations were preformed with the software package NCSS version 2001 (Number Cruncher Statistical Systems, […], Utah).

[3] = system: histone H3, H4 and protein acetylation; experiment: Histone H3, H4 and protein acetylation, p21 and caspase-3 in PBMCs and BMMCs (Example 3); assay type: in vivo, human
Description: Serial marrow and/or peripheral blood cells were collected at weekly intervals to examine PAMC-induced changes in histone acetylation.
Changes in histone H3, H4 and protein acetylation (immunocytochemistry, multiparameter flow cytometry and western blot analysis.) Immunocytochemical analysis of histone H3 was performed on bone marrow mononuclear cells (BMMCs) as described previously. The multiparameter flow cytometric analysis of protein acetylation versus caspase-3 activation was performed on serial BM aspirates using monoclonal anti-acetylated lysine antibody (Cell Signaling Technology, Beverly, Mass.) followed by FITC-conjugated goat anti-mouse antibody (Caltag Laboratories, Burlingame, Calif.) and polyclonal PE-conjugated anti-caspase-3, active form antibody (BD Pharmingen, Sand Diego, Calif.). The analysis of protein acetylation versus p21 expression or CD 34 expression was performed using polyclonal anti-acetylated lysine antibody (Cell Signaling Technology) versus monoclonal anti-p21 antibody (BD Transduction Laboratories, San Jose, Calif.) or monoclonal anti-CD34 antibody (BD Pharmingen). Primary antibodies were detected using PE-conjugated goat anti-mouse and FITC-conjugated goat anti-rabbit antibodies (Caltag Laboratories). For staining, BMMCs were isolated using Ficoll-Paque Plus (Amersham Biosciences, Piscataway, N.J.) fixed in 0.4% paraformaldehyde, permeabilized with 0.4% Triton X-100, incubated with primary antibodies for 1 hour at room temperature, washed, incubated with secondary antibodies for 1 hour, washed and analyzed on a FACSCalibur flow cytometer (Becton Dickinson, San Jose, Calif.) using CellQuest software for acquisition and FloJo software for analysis.
For western blot analysis of histone acetylation, PBMCs and BMMCs were isolated using Ficoll-Paque Plus (Amersham Biosciences). Histones from the cells were prepared as follows: Cells were washed in 2 ml HBSS and disrupted by a 1 mL ice-cold lysis buffer A (10 mM Tris pH 7.6, 5 mM butyric acid, 1% Triton X-100, 1 mM MgCl2, and 1 mM PMSF). Nuclei were collected by centrifugation at 14,000 rpm for 15 min. The pellet was resuspended once with 250 μL ice-cold lysis buffer B (10 mM Tris pH 7.6, 0.25 M Sucrose, 3 mM CaCl2 and 5 mM butyric acid). Sulfuric acid was added to a concentration of 0.4 N and the tubes were incubated at 4° C. overnight. Debris was pelleted by centrifugation, and the supernatant was collected. Histones were precipitated by addition of 10 volumes of acetone and incubation at −20° C. overnight. Pellets were collected by centrifugation, briefly dried under vacuum and resuspended with dH2O. The total protein content was determined by a bicinchoninic acid assay kit (Pierce, Rockford, Ill.). The proteins 10-30 μg were separated by 15% SDS PAGE and visualized using the antibodies for acetyl-histone H3, acetyl-histone H4, and histone H2A, all from Upstate Biotechnologies (Lake Placid, N.Y.). The immunoreactive proteins were detected using ECL western blotting analysis system (Amersham Biosciences). Radiographic films of histone acetylation were scanned and digitized (UN-SCAN-IT), Silk Scientific, UT).

[4] = 4 mg/m2, 4 mg/m^2, first dose, with food, 7 patients

## Nc1ccccc1NC(=O)c1ccc(CNC(=O)OCc2cccnc2)cc1 [SNDX-275, N-(2-aminophenyl) 4-[N-(pyrid-3-yl)methyloxycarbonylaminomethyl]benzamide]
clinical
  Tmax: 0.5 to 2.0 h
  apparent drug clearance (CL/F): low
clinical; 2 mg/m2
  AUC: 107 ng·h/mL
clinical; 2 mg/m2, AUC(0-48)
  AUC(0-t): 60.1 ng·h/mL
clinical; 2 mg/m2, Cmax
  Cmax: 25.3 ng/mL
clinical; 2 mg/m2, Mean AUC
  AUC: 135 ng·h/mL
clinical; 2 mg/m2, Mean t1/2
  half-life: 54 h
clinical; 2 mg/m2, Median Tmax
  Tmax: 0.6 h
clinical; 2 mg/m2, T1/2
  half-life: 100 h
clinical; 2 mg/m2, Tmax
  Tmax: 0.5 h
clinical; 4 mg/m2, Mean AUC
  AUC: 323 ng·h/mL
clinical; 4 mg/m2, Mean t1/2
  half-life: 87.9 h
clinical; 4 mg/m2, Median Tmax
  Tmax: 0.5 h
clinical; 5 mg/m2
  T1/2: 77 h
clinical; 5 mg/m2, AUC
  AUC: 432 ng·h/mL
clinical; 5 mg/m2, AUC(0-48)
  AUC(0-t): 153 ng·h/mL
clinical; 5 mg/m2, Cmax
  Cmax: 72 ng/mL
clinical; 5 mg/m2, Mean AUC
  AUC: 494 ng·h/mL
clinical; 5 mg/m2, Mean Cmax
  Cmax: 77.3 ng/mL
clinical; 5 mg/m2, Mean t1/2
  half-life: 133 h
clinical; 5 mg/m2, Median Tmax
  Tmax: 0.5 h
clinical; 5 mg/m2, T1/2
  half-life: 112 h
clinical; 6 mg/m2
  Mean CL/F: 16.7 L/h
clinical; 6 mg/m2, AUC
  AUC: 412 ng·h/mL
clinical; 6 mg/m2, AUC(0-48)
  AUC(0-t): 170 ng·h/mL
clinical; 6 mg/m2, Mean AUC
  AUC: 459 ng·h/mL
clinical; 6 mg/m2, Mean Cmax
  Cmax: 37.3 ng/mL
clinical; 6 mg/m2, Mean t1/2
  half-life: 107 h
clinical; 6 mg/m2, Median Tmax
  Tmax: 1 h
clinical; 6 mg/m2, T1/2
  half-life: 102 h
clinical; T1/2
  half-life: ~100 h
clinical; Tmax
  Tmax: ≤ 1 h
[1]; all schedules
  patients with stable disease: 7
[1]; melanoma, Schedule A
  patients with partial response: One
[1]; one melanoma patient
  time on SNDX-275 of the patient with partial response: ≥ 22 months
[1]; one patient with Ewing's sarcoma, Schedule A
  duration of stable disease: ≥ 60 weeks
[1]; one patient with melanoma, Schedule B
  duration of stable disease: ≥ 20 weeks
[1]; one patient with rectal carcinoma, Schedule A
  duration of stable disease: ≥ 38 weeks
Plasma proteins
  binding to albumin versus other plasma proteins: no greater binding affinity to albumin than other plasma proteins
  protein bound: ≈ 80%
[2]; 4 to 10 mg/m^2
  AUC with increasing doses: reached a plateau
[2]; All doses, n = 27
  T1/2 (mean and SD), terminal half-life: 36 h
[2]; [4]
  AUC: 208 ± 86.1 ng·h/mL
  Cmax: 4.74 ± 3.41 ng/mL
[2]; 4 mg/m2, 4 mg/m^2, first dose, with food, 7 patients, read-out: T1/2 (mean and SD) (converted)
  half-life: 36.6 ± 18.6 h
[2]; 4 mg/m2, 4 mg/m^2, first dose, with food, 7 patients, read-out: Tmax (median)
  Tmax: 12 h
[2]; 6 mg/m2, 6 mg/m^2, first dose, with food, 7 patients
  Cmax: 4.87 ± 1.76 ng/mL
[2]; 6 mg/m2, 6 mg/m^2, first dose, with food, 7 patients, read-out: Tmax (median)
  Tmax: 12 h
[2]; 6 mg/m2, 6 mg/m^2, first dose, with food, n = 5
  AUC: 351 ng·h/mL
[2]; 6 mg/m2, 6 mg/m^2, first dose, with food, n = 5, read-out: T1/2 (mean and SD) (converted)
  half-life: 43.8 ± 16.4 h
[2]; 8 mg/m2, 8 mg/m^2, first dose, with food, 15 patients
  Cmax: 53.1 ± 92.4 ng/mL
[2]; 8 mg/m2, 8 mg/m^2, first dose, with food, 15 patients, read-out: Tmax (median)
  Tmax: 1 h
[2]; 8 mg/m2, 8 mg/m^2, first dose, with food, n = 10
  AUC: 328 ng·h/mL
[2]; 8 mg/m2, 8 mg/m^2, first dose, with food, n = 10, read-out: T1/2 (mean and SD) (converted)
  half-life: 33.4 ± 12.7 h
[2]; 10 mg/m2, 10 mg/m^2, first dose, with food, 6 patients
  Cmax: 53.2 ± 58 ng/mL
[2]; 10 mg/m2, 10 mg/m^2, first dose, with food, 6 patients, read-out: Tmax (median)
  Tmax: 1 h
[2]; 10 mg/m2, 10 mg/m^2, first dose, with food, n = 5
  AUC: 312 ng·h/mL
[2]; 10 mg/m2, 10 mg/m^2, first dose, with food, n = 5, read-out: T1/2 (mean and SD) (converted)
  half-life: 30.4 ± 13.9 h
[2]; All doses, 35 patients, read-out: Tmax (median)
  Tmax: ~2 h
[2]; All doses, n = 27, read-out: T1/2 (mean and SD), terminal half-life (converted)
  half-life: 35.6 ± 15 h
[2]; all dose levels, read-out: range of Tmax values
  Tmax: 0.5 to 36 h
[3]; PBMCs and BMMCs, 8 patients at DL 4 and 1 patient at DL 5
  histone H3 and H4 acetylation by western blotting: increase in histone H3 and H4 acetylation
[3]; bone marrow mononuclear cells
  protein and H3/H4 acetylation, p21 expression, caspase-3 activation: increase in protein and H3/H4 acetylation, p21 expression, and caspase-3 activation
[3]; flow cytometric analysis
  specimens with caspase-3 activation: 67%
[3]; following SNDX-275 treatment, 4 patients with early PB specimens
  time at which increase in histone H3 and H4 acetylation was evident: 8 to 12 h
[3]; in vivo
  persistence of histone acetylation following last SNDX-275 administration: 2-3 weeks
[3]; lowest dose level
  histone H3 acetylation by immunocytochemistry: increase in histone H3 acetylation
